Assay: wn = mass fraction of the nth substance listed
Conditions: 101 kPa, Liquid, w1 = 0.321; for electrical conductivity: Phywe conductometer; for mass density: Vibrating tube method

CCN(CC)CC [triethylamine] + O
Conditions | electrical conductivity [S/m] | mass density [kg/m3]
284.65 K | 0.04696 | 935.6
285.14 K | 0.04816 | 935.2
285.64 K | 0.04926 | 934.7
286.14 K | 0.05046 | 934.2
286.65 K | 0.05156 | 933.7
287.14 K | 0.05276 | 933.1
287.65 K | 0.05396 | 932.5
288.09 K | 0.05496 | 932
288.59 K | 0.05616 | 931.4
288.89 K | 0.05676 | 931
289.14 K | 0.05736 | 930.7
289.42 K | 0.05806 | 930.3
289.65 K | 0.05856 | 930
289.91 K | 0.05916 | 929.6
290.15 K | 0.05976 | 929.3
290.33 K | 0.06026 | 929
290.44 K | 0.06056 | 928.9
290.55 K | 0.06076 | 928.7
290.65 K | 0.06106 | 928.6
290.75 K | 0.06136 | 928.4
290.84 K | 0.06166 | 928.3
290.94 K | 0.06196 | 928.2
291.05 K | 0.06226 | 928
291.15 K | 0.06256 | 927.8
291.19 K | 0.06276 | 927.8
291.24 K | 0.06286 | 927.7
291.29 K | 0.06306 | 927.6
291.34 K | 0.06326 | 927.5
291.39 K | 0.06346 | 927.5
